The experiment addresses T1, SIRT1 (Homo sapiens, UniProt Q96EB6).
T1 construct: His-tag (N); made in house; host or cells: E. coli BL21(DE3), T7-promoter vector
T1 sequence (Q96EB6 1-747): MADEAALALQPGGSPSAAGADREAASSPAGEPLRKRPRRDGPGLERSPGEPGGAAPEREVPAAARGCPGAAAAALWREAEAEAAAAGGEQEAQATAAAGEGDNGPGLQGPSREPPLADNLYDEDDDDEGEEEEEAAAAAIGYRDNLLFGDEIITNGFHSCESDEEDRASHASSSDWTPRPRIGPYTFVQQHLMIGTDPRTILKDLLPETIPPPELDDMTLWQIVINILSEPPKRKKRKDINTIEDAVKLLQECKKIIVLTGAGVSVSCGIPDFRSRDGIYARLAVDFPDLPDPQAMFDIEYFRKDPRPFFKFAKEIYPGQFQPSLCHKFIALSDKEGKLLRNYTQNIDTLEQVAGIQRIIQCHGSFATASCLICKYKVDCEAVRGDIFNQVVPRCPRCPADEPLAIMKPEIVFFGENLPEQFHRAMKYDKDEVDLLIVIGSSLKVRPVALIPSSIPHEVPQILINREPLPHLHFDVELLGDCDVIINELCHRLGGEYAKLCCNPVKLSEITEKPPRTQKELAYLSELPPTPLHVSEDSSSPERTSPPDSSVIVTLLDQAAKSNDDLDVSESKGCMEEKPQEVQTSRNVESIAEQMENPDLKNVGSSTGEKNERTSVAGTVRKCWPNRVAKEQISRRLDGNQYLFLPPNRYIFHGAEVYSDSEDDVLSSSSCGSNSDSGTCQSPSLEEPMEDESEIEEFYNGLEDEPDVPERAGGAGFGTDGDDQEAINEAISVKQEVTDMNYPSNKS
In words: Mass spectrometry based assay for modulators of SIRT1 activity (deacetylation of p53-based acetylated peptide). As to conditions: for EC1.5: concentration of test compound that results in 150% activation of SIRT1, 0.5 μM peptide substrate, 120 μM βNAD+, 10 nM SIRT1, 25 min, 25° C.; for Emax: percent maximum fold activation of SIRT1. The experiment is classed as biochemical. An excerpt: A mass spectrometry based assay was used to identify modulators of SIRT1 activity. The mass spectrometry based assay utilizes a peptide having 20 amino acid residues as follows: Ac-EE-K(biotin)-GQSTSSHSK(Ac)NleSTEG-K(5TMRi)-EE-NH2 (SEQ ID NO: 1) wherein K(Ac) is an acetylated lysine residue and Nle is a norleucine. The peptide is labeled with the fluorophore 5TMR (excitation 540 nm/emission 580 nm) at the C-terminus. The sequence of the peptide substrate is based on p53 with several modifications. In addition, the methionine residue naturally present in the sequence was replaced with the norleucine because the methionine may be susceptible to oxidation during synthesis and purification.
The mass spectrometry assay is conducted as follows: 0.5 μM peptide substrate and 120 μM βNAD+ is incubated with 10 nM SIRT1 for 25 minutes at 25° C. in a reaction buffer (50 mM Tris-acetate pH 8, 137 mM NaCl, 2.7 mM KCl, 1 mM MgCl2, 5 mM DTT, 0.05% BSA). Test compounds may be added to the reaction as described above. The SirT1 gene is cloned into a T7-promoter containing vector and transformed into BL21(DE3). After the 25 minute incubation with SIRT1, 10 μL of 10% formic acid is added to stop the reaction. Reactions are sealed and frozen for later mass spec analysis. Determination of the mass of the substrate peptide allows for precise determination of the degree of acetylation (i.e. starting material) as compared to deacetylated peptide (product).
A control for inhibition of sirtuin activity is conducted by adding 1 μL of 500 mM nicotinamide as a negative control at the start of the reaction (e.g., permits determination of maximum sirtuin inhibition). A control for activation of sirtuin activity is conducted using 10 nM of sirtuin protein, with 1 μL of DMSO in place of compound, to determinine the amount of deacetylation of the substrate at a given timepoint within the linear range of the assay. This timepoint is the same as that used for test compounds and, within the linear range, the endpoint represents a change in velocity.
For the above assay, SIRT1 protein was expressed and purified as follows. The SirT1 gene was cloned into a T7-promoter containing vector and transformed into BL21(DE3). The protein was expressed by induction with 1 mM IPTG as an N-terminal His-tag fusion protein at 18° C. overnight and harvested at 30,000×g. Cells were lysed with lysozyme in lysis buffer (50 mM Tris-HCl, 2 mM Tris[2-carboxyethyl]phosphine (TCEP), 10 μM ZnCl2, 200 mM NaCl) and further treated with sonication for 10 min for complete lysis. The protein was purified over a Ni-NTA column (Amersham) and fractions containing pure protein were pooled, concentrated and run over a sizing column (Sephadex S200 26/60 global). The peak containing soluble protein was collected and run on an Ion-exchange column (MonoQ). Gradient elution (200 mM-500 mM NaCl) yielded pure protein. This protein was concentrated and dialyzed against dialysis buffer (20 mM Tris-HCl, 2 mM TCEP) overnight. The protein was aliquoted and frozen at −80° C. until further use.
Sirtuin modulating compounds that activated SIRT1 were identified using the assay described above and are shown below in Table 1. The EC1.5 values represent the concentration of test compounds that result in 150% activation of SIRT1. The EC1.5 values for the activating compounds are represented by A (EC1.5<1.0 uM), B (EC1.5 1-25 uM), C (EC1.5>25 uM). The percent maximum fold activation is represented by A (Fold activation >200%) or B (Fold Activation <200%). “NT” indicates the compound was not tested in a particular assay.

Experimental findings from patent US20110077248A1, “IMIDAZOPYRIDINE AND RELATED ANALOGS AS SIRTUIN MODULATORS” (Sirtris Pharmaceuticals, Inc., priority 2008, published 2011) are described below.

As for `O=C(Nc1cccn2cc(-c3ccccc3)nc12)c1cnccn1` [Compound 102], the EC1.5 result is “C (EC1.5>25 uM)” and the maximal effect (Emax) (usually the maximal effect, on the per cent scale that the assay sets) is less than 200%.

`O=C(Nc1cccn2cc(-c3ccccc3)nc12)c1cscn1` [Compound 101]: the EC1.5 entry was “B (EC1.5 1-25 uM)” and the Emax was less than 200%.

Regarding `O=C(Nc1nc(CN2CCOCC2)cs1)c1cccn2nc(-c3cccc(OC(F)(F)F)c3)nc12` [Compound 179], the EC1.5 result is reported as “B (EC1.5 1-25 uM)” and the Emax is greater than 200%.

Consider `Cc1cnc(NC(=O)c2nccn3cc(-c4ccccc4C(F)(F)F)nc23)s1` [Compound 173], for which the EC1.5 entry is recorded as “A (EC1.5<1.0 uM)” and the Emax is greater than 200%.

As to `Cc1ccc(-c2nc3c(C(=O)Nc4cccc(CN5CCOCC5)n4)cccn3n2)cn1` [Compound 213], the EC1.5 result is reported as “B (EC1.5 1-25 uM)” and the Emax is greater than 200%.

For the molecule `O=C(Nc1ncc(CN2CCOCC2)s1)c1cccn2cc(-c3cccc(C(F)(F)F)c3)nc12` [Compound 134, N-(5-(morpholinomethyl)thiazol-2-yl)-2-(3-(trifluoromethyl)phenyl)imidazo[1,2-a]pyridine-8-carboxamide], the EC1.5 entry is reported as “A (EC1.5<1.0 uM)” and the Emax was greater than 200%.

Turning to `O=C(Nc1nccs1)c1nccn2cc(-c3cccc(C(F)(F)F)c3)nc12` [Compound 138, N-(thiazol-2-yl)-2-(3-(trifluoromethyl)phenyl)imidazo[1,2-a]pyrazine-8-carboxamide], the EC1.5 entry was “C (EC1.5>25 uM)” and the Emax was less than 200%.

Turning to `O=C(Nc1ccccn1)c1cccn2nc(-c3ccccc3OC(F)F)nc12` [Compound 226], the EC1.5 result is listed as “B (EC1.5 1-25 uM)” and the Emax was greater than 200%.

Regarding `O=C(Nc1ccccc1)c1cccn2cc(-c3cccc(C(F)(F)F)c3)nc12` [Compound 113, N-phenyl-2-(3-(trifluoromethyl)phenyl)imidazo[1,2-a]pyridine-8-carboxamide], the EC1.5 entry is “C (EC1.5>25 uM)” and the Emax is less than 200%.

For `O=C(Nc1cccc(OCC(O)CO)c1)c1cccn2cc(-c3cccc(C(F)(F)F)c3)nc12` (stereo not drawn) [Compound 137, N-(3-(2,3-dihydroxypropoxy)phenyl)-2-(3-(trifluoromethyl)phenyl)imidazo[1,2-a]pyridine-8-carboxamide], the EC1.5 entry was “A (EC1.5<1.0 uM)” and the maximum response (Emax) was greater than 200%.

With `O=C(Nc1ccc(CCN2CCOCC2)cc1)c1cccn2cc(-c3ccc(F)cc3C(F)(F)F)nc12` [Compound 170], the EC1.5 entry is given as “A (EC1.5<1.0 uM)” and the maximum response (Emax) was greater than 200%.

`O=C(Nc1cnccn1)c1nccn2cc(-c3ccccc3OC(F)(F)F)nc12` [Compound 245]: the EC1.5 result is listed as “A (EC1.5<1.0 uM)” and the maximum response (Emax) was greater than 200%.

Consider `Cc1cc(-c2nc3c(C(=O)Nc4nccs4)cccn3n2)ccn1` [Compound 214, 2-(2-methylpyridin-4-yl)-N-(thiazol-2-yl)-[1,2,4]triazolo[1,5-a]pyridine-8-carboxamide], for which the EC1.5 entry is reported as “B (EC1.5 1-25 uM)” and the Emax was greater than 200%.

On to `O=C(Nc1cccc(CN2CCOCC2)n1)c1cccn2cc(-c3ccc(F)cc3C(F)(F)F)nc12` [Compound 238], for which the EC1.5 result was “A (EC1.5<1.0 uM)” and the maximum response (Emax) is greater than 200%.

For the molecule `O=C(Nc1cccn2cc(-c3cccc(-c4ccccc4)c3)nc12)c1cnccn1` [Compound 123, N-(2-(biphenyl-3-yl)imidazo[1,2-a]pyridin-8-yl)pyrazine-2-carboxamide], the EC1.5 entry is “C (EC1.5>25 uM)” and the maximal response (Emax) was less than 200%.

As to `Cc1ccc(NC(=O)c2cccn3cc(-c4ccc(F)cc4C(F)(F)F)nc23)cc1` [Compound 141], the EC1.5 entry was “A (EC1.5<1.0 uM)” and the Emax is greater than 200%.

As for `O=C(Nc1nccs1)c1nccn2cc(-c3ccc(F)cc3C(F)(F)F)nc12` [Compound 188], the EC1.5 entry was “B (EC1.5 1-25 uM)” and the maximal response (Emax) was greater than 200%.

As to `O=C(Nc1nccs1)c1cccn2cc(-c3cccc(CN4CCCC4)c3)nc12` [Compound 256], the EC1.5 result is “B (EC1.5 1-25 uM)” and the maximal effect (Emax) was greater than 200%.

As to `O=C(Nc1ccccn1)c1cccn2nc(-c3ccc(OC[C@@H](O)CO)cc3C(F)F)nc12` [Compound 250], the EC1.5 result was “B (EC1.5 1-25 uM)” and the maximal effect (Emax) is greater than 200%.

Consider `O=C(Nc1ccccn1)c1nccn2cc(-c3ccccc3C(F)(F)F)nc12` [Compound 172], for which the EC1.5 entry is listed as “B (EC1.5 1-25 uM)” and the Emax is greater than 200%.

With `O=C(Nc1ccccn1)c1cccn2nc(-c3ccc(N4CCOCC4)cc3C(F)(F)F)nc12` [Compound 220], the EC1.5 entry is reported as “A (EC1.5<1.0 uM)” and the Emax was greater than 200%.

On to `O=C(Nc1cccc(CN2CCOCC2)n1)c1nccn2cc(-c3ccc(F)cc3C(F)(F)F)nc12` [Compound 261], for which the EC1.5 entry was “A (EC1.5<1.0 uM)” and the Emax is greater than 200%.

For `O=C(Nc1cccc(CN2CCOCC2)n1)c1cccn2cc(-c3ccc(C(F)F)cc3)nc12` [Compound 205], the EC1.5 entry is given as “A (EC1.5<1.0 uM)” and the maximal response (Emax) was greater than 200%.

Take `O=C(Nc1cnccn1)c1nccn2cc(-c3ccc(F)cc3C(F)(F)F)nc12` [Compound 247]: the EC1.5 result was “B (EC1.5 1-25 uM)” and the maximum response (Emax) is greater than 200%.

In the case of `O=C(Nc1cccc(CN2CCOCC2)n1)c1cccn2cc(-c3cccc(C(F)(F)F)c3)nc12` [Compound 160], the EC1.5 result was “A (EC1.5<1.0 uM)” and the Emax was greater than 200%.

Regarding `O=C(Nc1cccc(CN2CCOCC2)n1)c1cccn2cc(-c3cc(F)cc(F)c3)nc12` [Compound 193], the EC1.5 entry is reported as “A (EC1.5<1.0 uM)” and the maximal effect (Emax) is greater than 200%.

As to `Cc1cc(-c2nc3c(C(=O)Nc4nc(CN5CCOCC5)cs4)cccn3n2)ccn1` [Compound 216], the EC1.5 entry is given as “B (EC1.5 1-25 uM)” and the Emax is greater than 200%.

In the case of `O=C(Nc1ccccc1)c1cccn2cc(-c3ccccc3)nc12` [Compound 108], the EC1.5 entry is “C (EC1.5>25 uM)” and the maximal effect (Emax) was less than 200%.

Regarding `O=C(Nc1nccs1)c1cccn2cc(-c3ccc(CN4CCCC4)cc3)nc12` [Compound 252], the EC1.5 entry is given as “B (EC1.5 1-25 uM)” and the Emax was greater than 200%.

On to `O=C(NC1CCCC1)c1cccn2cc(-c3ccccc3)nc12` [Compound 110], for which the EC1.5 result is “C (EC1.5>25 uM)” and the maximal effect (Emax) was less than 200%.
